We go through five compounds from PMC13524802, “Unique adaptations in sulfatases underpin colonic mucin degradation by Akkermansia muciniphila” (Nature Microbiology, 2026).

One assay deals with T1, Amuc0491^3S-Gal/GalNAc (Akkermansia muciniphila, UniProt B2UNV9).
T1 construct: gene Amuc_0491; recombinant, N-terminal His6 (pETite), E. coli TUNER (DE3)
As to the kind of experiment: HPAEC and microfluidic desulfation assays. Format: biochemical. The following applies: 5 mM CaCl2, 150 mM NaCl; kinetics (kcat/Km only) with labelled compound.

Assay [1] deals with T2, Amuc1755^4S-Gal (Akkermansia muciniphila, UniProt B2UML7, E464A).
T2 construct: gene Amuc_1755; recombinant, N-terminal His6 (pETite), E. coli TUNER (DE3); monomer
T2 sequence (B2UML7 entry or part of it E464A): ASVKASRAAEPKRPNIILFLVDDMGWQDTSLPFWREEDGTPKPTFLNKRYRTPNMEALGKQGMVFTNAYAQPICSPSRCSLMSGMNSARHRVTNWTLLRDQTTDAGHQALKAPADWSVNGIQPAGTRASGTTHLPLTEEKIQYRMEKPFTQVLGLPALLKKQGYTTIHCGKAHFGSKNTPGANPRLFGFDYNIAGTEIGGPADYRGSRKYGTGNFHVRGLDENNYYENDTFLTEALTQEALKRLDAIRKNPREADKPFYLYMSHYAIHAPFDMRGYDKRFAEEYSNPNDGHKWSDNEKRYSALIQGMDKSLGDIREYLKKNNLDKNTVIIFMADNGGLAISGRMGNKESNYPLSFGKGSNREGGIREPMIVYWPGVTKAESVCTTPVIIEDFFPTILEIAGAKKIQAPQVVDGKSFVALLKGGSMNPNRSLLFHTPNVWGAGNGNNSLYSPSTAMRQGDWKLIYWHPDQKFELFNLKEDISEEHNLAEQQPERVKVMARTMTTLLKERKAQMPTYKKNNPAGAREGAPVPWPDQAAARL
As to the kind of experiment: HPAEC and TLC desulfation assay. The class given is biochemical. The following applies: overnight, 37 °C.

Assay [2] deals with T3, Amuc1755^4S-Gal (Akkermansia muciniphila, UniProt B2UML7, E464G).
T3 construct: gene Amuc_1755; recombinant, N-terminal His6 (pETite), E. coli TUNER (DE3); monomer
T3 sequence (B2UML7 entry or part of it E464G): as the sequence (B2UML7 entry or part of it E464A) above, with A441G counted along it
As to the kind of experiment: HPAEC and TLC desulfation assay. The class given is biochemical. The note with it: overnight, 37 °C.

The target of assay [3] is Amuc1033^6S-GlcNAc (Akkermansia muciniphila) (UniProt B2UQX4). As to the kind of experiment: SEC-MALS; size-exclusion chromatography coupled to light scattering (90°) and refractive index; Agilent BioSEC Advance 300 Å column; 20 mM Tris-HCl pH 7.4, 150 mM NaCl; calibrated with BSA.

T1 sequence (B2UNV9 entry or part of it): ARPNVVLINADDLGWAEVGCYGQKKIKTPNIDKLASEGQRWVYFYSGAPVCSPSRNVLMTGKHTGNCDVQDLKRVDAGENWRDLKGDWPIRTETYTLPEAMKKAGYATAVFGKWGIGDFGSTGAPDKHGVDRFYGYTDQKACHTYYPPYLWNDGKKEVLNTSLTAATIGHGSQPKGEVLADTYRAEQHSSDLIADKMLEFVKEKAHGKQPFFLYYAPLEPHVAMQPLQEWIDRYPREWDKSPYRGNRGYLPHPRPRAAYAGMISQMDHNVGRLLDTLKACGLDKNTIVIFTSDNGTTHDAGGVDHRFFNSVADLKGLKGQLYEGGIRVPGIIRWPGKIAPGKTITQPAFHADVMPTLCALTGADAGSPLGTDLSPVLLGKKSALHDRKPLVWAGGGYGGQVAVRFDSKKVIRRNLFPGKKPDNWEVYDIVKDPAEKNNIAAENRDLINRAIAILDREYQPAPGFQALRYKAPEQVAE

For `O=S(=O)(O)O[C@H]1[C@@H](O)[C@@H](CO)OC(O)[C@@H]1O` (stereo partly drawn) [3S-Gal, O3 sulfated D-galactose], the “HPAEC and microfluidic desulfation assays” value on Amuc0491^3S-Gal/GalNAc is reported as “which desulfate O3 sulfated D-galactose (3S-Gal)-containing substrates”. Take `CC(=O)N[C@H]1C(O)O[C@H](CO)[C@H](OS(=O)(=O)O)[C@@H]1O` (stereo partly drawn) [4S-GalNAc, O4 sulfated N-acetyl-D-galactosamine]: the “HPAEC and TLC desulfation assay” value was “Mutation of Glu464 to Ala and Gly enabled the Amuc1755^4S-Gal to work on 4S-GalNAc” at Amuc1755^4S-Gal [1]; “Mutation of Glu464 to Ala and Gly enabled the Amuc1755^4S-Gal to work on 4S-GalNAc” at Amuc1755^4S-Gal [2]. As for “Amuc1033^6S-GlcNAc (from UniProt B2UQX4 1-581) (enzyme)”, the stoichiometry N in assay [3] amounted to 2. For the compound `CC(=O)N[C@H]1C(O)O[C@H](CO)[C@H](O)[C@@H]1OS(=O)(=O)O` (stereo partly drawn) [3S-GalNAc, O3 sulfated N-acetyl-D-galactosamine], the “HPAEC and microfluidic desulfation assays” value on Amuc0491^3S-Gal/GalNAc was “only Amuc0491^3S-Gal/GalNAc was capable of desulfating O3 sulfatedN-acetyl-D-galactosamine (3S-GalNAc)”.

With `O=S(=O)(O)O[C@@H]1[C@H](O)[C@@H](O)C(O)O[C@@H]1CO` (stereo partly drawn) [4S-Gal, O4 sulfated D-galactose], the “HPAEC and TLC desulfation assay” value on Amuc1755^4S-Gal [1] and on Amuc1755^4S-Gal [2] was “but reduced activity on 4S-Gal” each time.
